Laboratory results from publication PMC9525908, “α-Crystallin chaperone mimetic drugs inhibit lens γ-crystallin aggregation: Potential role for cataract prevention” (The Journal of Biological Chemistry, 2022).
Changes are numbered by the printed parent chain.

Columns and labels:
Format in all cases: biochemical
HγS_N14D = molecular target: T1, HγS_N14D (Homo sapiens, UniProt P22914, N15D); experiment: Thermal aggregation (72 °C, 20 min) turbidity assay, HγS_N14D; conditions: read-out: % Suppression; for inhibition: HγS_N14D, 75 μM protein, 72 °C 20 min
T1 sequence (P22914 1-178 N15D): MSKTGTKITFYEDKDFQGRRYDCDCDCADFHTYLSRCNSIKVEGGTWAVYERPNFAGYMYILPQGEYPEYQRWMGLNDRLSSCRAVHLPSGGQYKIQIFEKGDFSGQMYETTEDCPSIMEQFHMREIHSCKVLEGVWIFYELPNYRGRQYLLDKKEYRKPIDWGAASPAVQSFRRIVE
From the text: (§1) For a review, see the study by Roskamp et al. ([38]). […] For the mechanistic studies below these two compounds together with either drug M, chosen mostly as negative control, or the entire set of six compounds were used for comparison purpose, whereby the words “drug” or “compound” are used interchangeably in the studies later.

HγS = molecular target: T2, HγS (Homo sapiens, UniProt P22914); experiment: Thermal aggregation (72 °C, 20 min) turbidity assay, HγS; conditions: 20 min, read-out: % Suppression; for inhibition: HγS, 75 μM protein, 72 °C 20 min
T2 sequence (P22914 1-178): T1 sequence (P22914 1-178 N15D) with D15N
From the text: as §1

Bovine γ-crystallins = experiment: Thermal aggregation (72 °C) turbidity assay, bovine γ-crystallins (pool 4); conditions: for Thermal denaturation inhibitory activity in subscreen: 150 μM; for Thermal denaturation inhibitory activity in subscreen / % Suppression: 72 °C 20 min; for % Suppression: 75 μM protein, 125 μM or less inhibitor (1.7:1); for Effect on BGC aggregation at lower protein concentrations / Effect on absorbance of BGC at 2.0 mg/ml: 400 μM drug, 72 °C, 10 and 20 min
Procedure: Candidate compounds were rescreened using thermal denaturation upon heating at 72 °C for 20 min according to Chen et al. ([36]) in order to select for compounds with chaperone rather than antioxidant activity since a large number of the latter already exist in the cataract field ([37]).
as §1
All assays were carried out manually in CORNING #9017 Costar Assay 96-well plates. Wells were filled with 90 μl calf γ-crystallin-rich protein solution (pool 4 at 2 mg/ml) followed by 0.5 to 5.0 μl of drug (all 10 mM stock solution in DMSO) as supplied by the manufacturer and 10 μl H2O2 (450 mM stock solution in water) and sealed with sticky Applied Biosystems MicroAmp Clear Adhesive films (Life Technologies). Control wells received DMSO only. Plates were shaken for 2 min and incubated from 24 to 72 h in a culture room at 37 °C. […] A second reading was performed following a heat shock of 20 min at 72 °C as described by Chen et al. ([36]) in order to capture drugs with heat-resistant chaperone activity. In order to quantitate the impact of the drugs on aggregation, a fitness plot was created (Fig. 1 C) that allowed us to identify wells with enhanced/worsening versus suppressed crystallin aggregation. In addition, aggregation in each well was also visually assessed by two independent “blinded” readers for the ability to read fine print through each well by placing the plates over small font text (Fig. 1D). Both machine and visual readouts were reconciled in order to increase robustness.
Final DMSO concentration was 5% including in control samples. Microtiter plates were first incubated for 10 min at 72 °C and reincubated for 10 more min. Absorbance was measured at both 10 and 20 min total incubation time.

bovine gamma crystallins = experiment: Screen: H2O2 and heat mediated aggregation of bovine gamma crystallins, turbidimetry at 600 nm; conditions: bovine γ-crystallin-rich proteins, oxidant stress 24 h and/or thermal stress 72 °C 20 min
Procedure: For the initial screen, a microtiter plate assay was developed in which bovine crystallins (2 mg/ml of 50 mM K3PO4 buffer, pH 7.2 [buffer A]) were exposed to H2O2 at varying concentrations (1–50 mM) for 12 to 36 h, upon which turbidity developed (at 50 mM H2O2 concentration) in both β- and γ-crystallins (Fig. 1, A and B). […] This was determined by turbidimetry at 600 nm (Fig. 1C) and confirmed using visual assessment of solution transparency over a fine text as well as the presence of cloudy aggregates visible by dark field microscopy (Fig. 1D). The drug:protein stoichiometric ratio was about 5:1. The wavelength of 600 nm was chosen to minimize interference by colored compounds, many of which absorb below 500 nm (Fig. 1E).
Wells were filled with 90 μl calf γ-crystallin-rich protein solution (pool 4 at 2 mg/ml) followed by 0.5 to 5.0 μl of drug (all 10 mM stock solution in DMSO) as supplied by the manufacturer and 10 μl H2O2 (450 mM stock solution in water) and sealed with sticky Applied Biosystems MicroAmp Clear Adhesive films (Life Technologies). Control wells received DMSO only. […] In order to quantitate the impact of the drugs on aggregation, a fitness plot was created (Fig. 1 C) that allowed us to identify wells with enhanced/worsening versus suppressed crystallin aggregation. In addition, aggregation in each well was also visually assessed by two independent “blinded” readers for the ability to read fine print through each well by placing the plates over small font text (Fig. 1D). Both machine and visual readouts were reconciled in order to increase robustness.

WT-HγD crystallin = molecular target: T3, WT-HγD crystallin (Homo sapiens, UniProt P07320); experiment: Dynamic light scattering of thermally stressed WT-HγD; conditions: for Size (radius) of aggregates: 50 μM WT-HγD, 400 μM drug, 72 °C 20 min, 7261 nm without drugs
T3 construct: made in house; host or cells: E. coli BL21(DE3) pLysS, pET3d vector
T3 sequence (P07320 1-174): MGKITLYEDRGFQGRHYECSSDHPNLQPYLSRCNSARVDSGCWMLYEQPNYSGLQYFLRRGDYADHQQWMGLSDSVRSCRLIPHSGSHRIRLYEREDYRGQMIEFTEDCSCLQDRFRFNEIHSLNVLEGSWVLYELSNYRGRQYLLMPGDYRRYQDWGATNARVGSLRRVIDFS
Procedure: Efficacy of our selected drugs in preventing the formation of protein aggregates was measured by DLS. Measurements were performed on a Wyatt DynaPro Nanostar. For DLS temperature scan experiment, pure and filtered protein samples (1 mg/ml in 10 mM sodium phosphate buffer, pH 7.2) with and without drugs (400 μM) were analyzed by DLS over a temperature range of 30 to 90 °C. Multiple scans were run for every data point, and the results represent average of individual scans. DLS spectra were also recorded for the samples at the end point of turbidity assay.

[1] = Bovine γ-crystallins experiment 1
[2] = Bovine γ-crystallins experiment 2
[3] = WT-HγD, end point of thermal stress 72 °C 20 min

SMILES | inhibition (HγS_N14D) [%] | inhibition (HγS) [%] | Thermal denaturation inhibitory activity in subscreen (Bovine γ-crystallins) | % Suppression (Bovine γ-crystallins; [1]) [%] | % Suppression (Bovine γ-crystallins; [2]) [%] | Antiaggregation activity (bovine gamma crystallins) | Size (radius) of aggregates (WT-HγD crystallin) [nm] | Percent Mass Peak 1 (WT-HγD crystallin; [3]) [%] | Radius (nm) Peak 1 (WT-HγD crystallin; [3]) [nm] | inhibition at 125 µM (HγS_N14D) [%] | inhibition at 125 µM (HγS) [%] | Effect on BGC aggregation at lower protein concentrations (Bovine γ-crystallins) | Effect on absorbance of BGC at 2.0 mg/ml (Bovine γ-crystallins) | Percent Mass Peak 2 (WT-HγD crystallin; [3]) [%] | Radius (nm) Peak 2 (WT-HγD crystallin; [3]) [nm]
COC(=O)/C=C/C(C)=C\C=C\C(C)=C\C=C\C=C(C)\C=C\C=C(C)\C=C\C(=O)O [drug B, Bixin] | 51 | 60 | thermal denaturation inhibitory activity | 23 | 54 | Medium heat shock inhibitor |  |  |  |  |  |  |  |  | 
Cc1cc(C(C#N)c2ccc(Cl)cc2)c(Cl)cc1NC(=O)c1cc(I)cc(I)c1O (centres unmarked) [drug C, Closantel] |  |  | thermal denaturation inhibitory activity | 60 | 73 | Medium strong dual inhibitor | 30.5 | 100 | 30.5 | 77 | 71 | stimulated aggregation | reproducibly suppressed absorbance |  | 
CC(C)=CCCC1(C)C=Cc2c(O)c3c(c(CC=C(C)C)c2O1)OC12C(=CC4CC1C(C)(C)OC2(C/C=C(/C)C(=O)O)C4O)C3=O (centres unmarked) [drug D, dihydrogambogic acid] |  |  | thermal denaturation inhibitory activity | 40 | 44 | Strong heat shock inhibitor |  |  |  | 76 | 61 |  |  |  | 
CC(C)=CCC[C@]1(C)C=Cc2c(O)c3c(c(CC=C(C)C)c2O1)O[C@]12C(=C[C@@H]4C[C@H]1C(C)(C)O[C@@]2(C/C=C(/C)C(=O)O)C4=O)C3=O [drug G, Gambogic acid] |  |  | thermal denaturation inhibitory activity | 48 | 75 | Strong heat shock inhibitor | 84.9 | 100 | 84.9 | 73 | 46 | stimulated aggregation | reproducibly suppressed absorbance |  | 
O=C(O)CCCCCCCCCCCC[C@@H]1C=CCC1 [drug M, Chaulmoogric acid] | 48 | 39 | thermal denaturation inhibitory activity | 40 | 16 | Dual heat shock inhibitor + antioxidant | 569 | 12.7 | 10.9 |  |  |  |  | 87.3 | 568.5
Oc1c(Cl)cc(Cl)c(Cl)c1Cc1c(O)c(Cl)cc(Cl)c1Cl [drug X, Hexachlorophene] |  |  | thermal denaturation inhibitory activity | 30 | 55 |  |  |  |  | 60 | 68 |  |  |  | 
